# Data published in PubChem BioAssay (NCI).
#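 Grown in 96-well plates, cells were treated for 48 hours with each compound at five concentrations. Insufficient inhibition: endpoint recorded as highest concentration tested. TGI denotes the concentration required for complete inhibition of growth.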
# Assays:
# Assay in all cases: DTP human tumour cell line panel, 48 h
# [1] = tested on: EKVX NSCLC
# [2] = tested on: HOP-92 NSCLC
# [3] = tested on: MDA-MB-231 breast
# [4] = tested on: OVCAR-5 ovarian
# [5] = tested on: COLO 205 colon
# [6] = tested on: SF-268 CNS
# [7] = tested on: SK-MEL-5 melanoma
# [8] = tested on: DU-145 prostate
# [9] = tested on: ACHN renal
# [10] = tested on: UACC-257 melanoma
# [11] = tested on: HL-60(TB) leukemia
# [12] = tested on: OVCAR-4 ovarian
# [13] = tested on: MDA-N
# [14] = tested on: SR leukemia
# [15] = tested on: MDA-MB-435
# [16] = tested on: MALME-3M melanoma
# [17] = tested on: HCT-15 colon
# [18] = tested on: SF-295 CNS
# [19] = tested on: TK-10 renal
# [20] = tested on: SF-539 CNS
# [21] = tested on: K-562 leukemia
# [22] = tested on: SK-OV-3 ovarian
# [23] = tested on: U251 CNS
# [24] = tested on: HS 578T breast
# [25] = tested on: CAKI-1 renal
# [26] = tested on: KM12 colon
# [27] = tested on: RXF 393 renal
# [28] = tested on: HT29 colon
# [29] = tested on: MCF7 breast
# [30] = tested on: SNB-75 CNS
# [31] = tested on: BT-549 breast
# [32] = tested on: M14 melanoma
# [33] = tested on: SK-MEL-28 melanoma
# [34] = tested on: UACC-62 melanoma
# [35] = tested on: RPMI-8226 leukemia
# [36] = tested on: NCI-H23 lung
# [37] = tested on: OVCAR-8 ovarian
# [38] = tested on: NCI/ADR-RES ovarian
# [39] = tested on: NCI-H460 lung
# [40] = tested on: NCI-H522 lung
# [41] = tested on: T-47D breast
# [42] = tested on: IGROV1 ovarian
# [43] = tested on: HCC-2998 colon
# [44] = tested on: SNB-19 CNS
# [45] = tested on: HCT-116 colon
# [46] = tested on: PC-3 prostate
# [47] = tested on: UO-31 renal
# [48] = tested on: 786-0 renal
# [49] = tested on: SN12C renal
# [50] = tested on: A549 NSCLC
# [51] = tested on: A498 renal
# [52] = tested on: HOP-62 NSCLC
# [53] = tested on: SW-620 colon
# [54] = tested on: SK-MEL-2 melanoma
# [55] = tested on: MOLT-4 leukemia
# [56] = tested on: OVCAR-3 ovarian
# [57] = tested on: CCRF-CEM leukemia
# [58] = tested on: NCI-H226 lung
smiles,measurement,setting,value
COC1/C=C/C(C)C(OC)CC(O)/C=C/C(C)C(C(C)C(OC)C(C)CCC(=O)C(C)C(C/C=C/N(C)C=O)OC)OC(=O)/C=C/C=C(\C)CC(OC)CC2=CC(=O)O[C@@H](C(C)C(OC)C1)[C@H]2O (stereo not given in full),TGI,[1],1.32 µM
same,TGI,[2],0.168 µM
same,TGI,[3],0.106 µM
same,TGI,[4],1.86 µM
same,TGI,[5],0.418 µM
same,TGI,[6],> 5.72 µM
same,TGI,[7],0.274 µM
same,TGI,[8],> 6.79 µM
same,TGI,[9],1.32 µM
same,TGI,[10],0.318 µM
same,TGI,[11],> 25 µM
same,TGI,[12],1.21 µM
same,TGI,[13],0.178 µM
same,TGI,[14],> 25 µM
same,TGI,[15],1.05 µM
same,TGI,[16],0.317 µM
same,TGI,[17],0.62 µM
same,TGI,[18],0.362 µM
same,TGI,[19],0.785 µM
same,TGI,[20],0.434 µM
same,TGI,[21],> 25 µM
same,TGI,[22],0.905 µM
same,TGI,[23],0.199 µM
same,TGI,[24],0.261 µM
same,TGI,[25],0.0875 µM
same,TGI,[26],> 6.11 µM
same,TGI,[27],0.265 µM
same,TGI,[28],> 5.01 µM
same,TGI,[29],0.409 µM
same,TGI,[30],0.32 µM
same,TGI,[31],0.498 µM
same,TGI,[32],0.175 µM
same,TGI,[33],0.385 µM
same,TGI,[34],0.504 µM
same,TGI,[35],3.7 µM
same,TGI,[36],1.06 µM
same,TGI,[37],0.776 µM
same,TGI,[38],1.14 µM
same,TGI,[39],0.477 µM
same,TGI,[40],0.653 µM
same,TGI,[41],6.27 µM
same,TGI,[42],0.423 µM
same,TGI,[43],1.35 µM
same,TGI,[44],0.239 µM
same,TGI,[45],0.41 µM
same,TGI,[46],1.09 µM
same,TGI,[47],0.3 µM
same,TGI,[48],0.503 µM
same,TGI,[49],> 25 µM
same,TGI,[50],1.1 µM
same,TGI,[51],0.131 µM
same,TGI,[52],0.16 µM
same,TGI,[53],> 12.4 µM
NC(Cc1c[nH]c2ccccc12)P(=O)(O)O (stereo not given),TGI,[1],> 100 µM
same,TGI,[3],> 100 µM
same,TGI,[4],> 100 µM
same,TGI,[5],> 100 µM
same,TGI,[6],> 100 µM
same,TGI,[54],> 100 µM
same,TGI,[7],> 100 µM
same,TGI,[8],> 100 µM
same,TGI,[9],> 100 µM
same,TGI,[10],> 100 µM
same,TGI,[11],> 100 µM
same,TGI,[55],> 100 µM
same,TGI,[12],> 100 µM
same,TGI,[13],> 100 µM
same,TGI,[14],> 100 µM
same,TGI,[15],> 100 µM
same,TGI,[16],> 100 µM
same,TGI,[17],> 100 µM
same,TGI,[18],> 100 µM
same,TGI,[19],> 100 µM
same,TGI,[56],> 100 µM
same,TGI,[20],> 100 µM
same,TGI,[21],> 100 µM
same,TGI,[22],> 100 µM
same,TGI,[23],> 100 µM
same,TGI,[24],> 100 µM
same,TGI,[25],> 100 µM
same,TGI,[26],> 100 µM
same,TGI,[27],> 100 µM
same,TGI,[28],> 100 µM
same,TGI,[29],> 100 µM
same,TGI,[30],> 100 µM
same,TGI,[31],> 100 µM
same,TGI,[32],> 100 µM
same,TGI,[33],> 100 µM
same,TGI,[34],> 100 µM
same,TGI,[35],> 100 µM
same,TGI,[57],> 100 µM
same,TGI,[36],> 100 µM
same,TGI,[37],> 100 µM
same,TGI,[38],> 100 µM
same,TGI,[39],> 100 µM
same,TGI,[40],> 100 µM
same,TGI,[41],> 100 µM
same,TGI,[42],> 100 µM
same,TGI,[43],> 100 µM
same,TGI,[44],> 100 µM
same,TGI,[45],> 100 µM
same,TGI,[46],> 100 µM
same,TGI,[47],> 100 µM
same,TGI,[48],> 100 µM
same,TGI,[49],> 100 µM
same,TGI,[50],> 100 µM
same,TGI,[51],> 100 µM
same,TGI,[58],> 100 µM
same,TGI,[52],> 100 µM
same,TGI,[53],> 100 µM
